Results as given in the CheMixHub viscosity set.

Assay: xn = mol fraction of the nth substance listed
Conditions: 100 kPa

NCCCN + OCCCO
viscosity [mPa·s]
Conditions | 293.15 K | 298.15 K | 303.15 K | 308.15 K | 313.15 K | 318.15 K
x2 = 0.0488 | 2.48 | 2.207 | 1.884 | 1.707 | 1.513 | 1.454
x2 = 0.0977 | 3.266 | 2.887 | 2.418 | 2.17 | 1.888 | 1.837
x2 = 0.1467 | 4.261 | 3.71 | 3.095 | 2.765 | 2.395 | 2.296
x2 = 0.1958 | 5.561 | 5.116 | 3.988 | 3.529 | 3.071 | 2.924
x2 = 0.2451 | 7.784 | 6.598 | 5.35 | 4.639 | 3.944 | 3.722
x2 = 0.2945 | 10.96 | 9.104 | 7.198 | 6.175 | 5.145 | –
x2 = 0.3441 | 15.12 | 12.35 | 9.637 | 8.272 | 6.698 | –
x2 = 0.3937 | 20.61 | 16.58 | 12.78 | 10.64 | 8.698 | –
x2 = 0.4435 | 27.49 | 22.54 | 17.07 | 14.02 | 11.29 | –
x2 = 0.4934 | 37.54 | 29.33 | 21.87 | 17.83 | 14.16 | –
x2 = 0.5435 | 48.19 | 37.19 | 27.63 | 22.21 | 17.49 | –
x2 = 0.5937 | 59.37 | 45.53 | 33.45 | 26.75 | 20.06 | –
x2 = 0.644 | 68.67 | 52.73 | 38.69 | 30.9 | 24.13 | –
x2 = 0.6945 | 75.47 | 57.65 | 42.48 | 34 | 26.62 | –
x2 = 0.745 | 77.45 | 60.06 | 44.62 | 35.77 | 28.05 | –
x2 = 0.7958 | 76.36 | 59.6 | 44.73 | 36.13 | 28.42 | –
x2 = 0.8466 | 71.94 | 56.84 | 42.88 | 34.89 | 27.77 | –
x2 = 0.8976 | 66.38 | 52.57 | 40 | 32.8 | 26.28 | –
x2 = 0.9487 | 59.47 | 47.41 | 36.34 | 30.05 | 24.3 | –
